Assay results reported in ChEMBL document CHEMBL3137667, “[Drug-induced liver injury; fourteenth updated edition of the bibliographic database of liver injuries and related drugs]” (Gastroenterol Clin Biol, 2004).

What was measured:
[1] = human
[2] = Times to onset, minimal and maximal, observed in the indexed observations. [column 'DELAI' in source]; conditions: human
[3] = human; remark: listed apart in the source
[4] = human; remark: listed apart in the source
[5] = human; remark: listed apart in the source
[6] = human; remark: listed apart in the source
[7] = Comments (NB not yet translated). [column 'COMMENTAIRES' in source]; conditions: human
[8] = Highest frequency of acute liver toxicity observed during clinical trials, expressed as a percentage. [column '% AIGUE' in source]; conditions: human
[9] = human; remark: listed apart in the source
[10] = human; remark: listed apart in the source
[11] = human; remark: listed apart in the source
[12] = Presence of at least one case with successful reintroduction. [column 'REINT' in source]; conditions: human
[13] = human; remark: listed apart in the source
[14] = human, serum
[15] = human, serum; remark: listed apart in the source
[16] = human, serum, 4383 h
[17] = Highest frequency of moderate liver toxicity observed during clinical trials, expressed as a percentage. [column '% BIOL' in source]; conditions: human
[18] = Proposed mechanism(s) of liver damage. [column 'MEC' in source]; conditions: human
[19] = human; remark: listed apart in the source
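Wherever Hepatotoxicity (association with vascular disease) is given: count of indexed literature references reporting vascular liver injury in humans, e.g. peliosis hepatitis, hepatic veno-occlusive disease or Budd-Chiari syndrome.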
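Wherever Hepatotoxicity (benign tumour) is given: value is a count of indexed literature references citing a benign tumour confirmed by histopathology.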
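Wherever Hepatotoxicity (choleostasis) is given: human cholestatic liver injury, shown by histopathology or by peak ALT or AST elevation over alkaline phosphatase ratio below 2, value counts indexed literature reports.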
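Wherever Hepatotoxicity (chronic liver disease) is given: chronic liver injury confirmed by histopathology or persistently raised serum aminotransferase activity beyond 6 months, value given as the count of indexed literature references.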
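Wherever Hepatotoxicity (cirrhosis) is given: value is a count of indexed literature references reporting cirrhosis confirmed by histopathology.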
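Wherever Hepatotoxicity (cytolytic) is given: human cytolytic liver injury, shown by histopathology or by a ratio above 5 of peak ALT or AST elevation to alkaline phosphatase elevation, value counts indexed references.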
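Wherever Hepatotoxicity (granulomatous hepatitis) is given: value is a count of indexed literature references reporting granulomatous liver disease confirmed by histopathology.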
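Wherever Hepatotoxicity (malignant tumour) is given: malignant tumour confirmed by histopathology, value gives the count of indexed literature references reporting it.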
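Wherever Hepatotoxicity (severe hepatitis) is given: human clinical data: severe hepatitis, meaning potentially life-threatening liver failure or clinically observed cases, the value counts how many indexed literature references report it.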
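Wherever Hepatotoxicity (steatosis) is given: steatosis confirmed by histopathology, value is the count of indexed references.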

Compound	Hepatotoxicity (severe hepatitis) ([1]; Liver)	Hepatotoxicity (time to onset) [2]	Hepatotoxicity (cytolytic) [3]	Hepatotoxicity (granulomatous hepatitis) [4]	Hepatotoxicity (association with vascular disease) [5]	Hepatotoxicity (choleostasis) [6]	Hepatotoxicity (comment) [7]	Hepatotoxicity (malignant tumour) [9]	Hepatotoxicity (benign tumour) [10]	Hepatotoxicity (cirrhosis) [11]	Hepatotoxicity (successful reintroduction) [12]	Hepatotoxicity (steatosis) [13]	Hepatotoxicity (acute) [14]	Hepatotoxicity (moderate) [15]	Hepatotoxicity (chronic liver disease) [16]	Hepatotoxicity (mechanism) [18]	Hepatotoxicity (animal toxicity known) [19]	Hepatotoxicity (severe hepatitis) [1]	Hepatotoxicity (acute) [8]	Hepatotoxicity (moderate) [17]	other results
CN(C)CCCN1c2ccccc2Sc2ccc(Cl)cc21 [CHLORPROMAZINE]	4	1 day - 28 years	13	2	0	50	RC/PROMAZINE/THIORIDAZINE AC_ANTI-N #CBP DUCTOPENIE	0	0	8	yes	1	58	9	6	Allergic, Toxic Metabolite	yes	–	–	–	Hepatotoxicity (acute) ([8]; Liver): 5.3%; Hepatotoxicity (moderate) ([17]; Liver): 42%
CN/C(=N/CCSCc1nc[nH]c1C)NC#N [CIMETIDINE]	3	2 days - 2 years	–	–	0	–	RC/FAMOTIDINE I/MEBENDAZOLE	0	0	0	yes	0	28	29	1	–	yes	–	–	–	Hepatotoxicity (cytolytic) ([3]; Liver): 20; Hepatotoxicity (granulomatous hepatitis) ([4]; Liver): 0; Hepatotoxicity (choleostasis) ([6]; Liver): 10; Hepatotoxicity (acute) ([8]; Liver): 0%; Hepatotoxicity (moderate) ([17]; Liver): 38%; Hepatotoxicity (mechanism) ([18]; Liver): Allergic, Dose-dependant, Toxic Metabolite
CC[C@H]1OC(=O)[C@H](C)[C@@H](O[C@H]2C[C@@](C)(OC)[C@@H](O)[C@H](C)O2)[C@H](C)[C@@H](O[C@@H]2O[C@H](C)C[C@H](N(C)C)[C@H]2O)[C@](C)(OC)C[C@@H](C)C(=O)[C@H](C)[C@@H](O)[C@]1(C)O [CLARITHROMYCIN]	–	1 day - 10 weeks	9	0	0	6	AC_ANTI-N	0	0	0	yes	0	13	47	0	Allergic, Dose-dependant	yes	4	5.6%	50.6%	–
O=P1(N(CCCl)CCCl)NCCCO1 (configuration not stated) [CYCLOPHOSPHAMIDE ANHYDROUS]	11	2 days - 21 years	–	–	44	–	CHC HNR MVO REACTIVATION_HVB	4	0	0	yes	0	18	16	0	–	yes	–	–	–	Hepatotoxicity (cytolytic) ([3]; Liver): 15; Hepatotoxicity (granulomatous hepatitis) ([4]; Liver): 0; Hepatotoxicity (choleostasis) ([6]; Liver): 2; Hepatotoxicity (acute) ([8]; Liver): 2.6%; Hepatotoxicity (moderate) ([17]; Liver): 85%; Hepatotoxicity (mechanism) ([18]; Liver): Dose-dependant
Cc1onc(-c2c(F)cccc2Cl)c1C(=O)N[C@@H]1C(=O)N2[C@@H]1SC(C)(C)[C@@H]2C(=O)O [FLOXACILLIN]	–	12 hours - 2 months	2	1	0	20	CHOLESTASE_PROLONGEE CHOLANGITE #CBP	0	0	2	yes	2	26	4	1	Allergic	yes	2	0%	3.4%	–
O=c1[nH]c(=O)n([C@H]2C[C@H](O)[C@@H](CO)O2)cc1F [FLOXURIDINE]	–	3 cures - 12 cures	2	0	3	7	CHOLECYSTITE_ACALCULEUSE CHOLANGITE/IAH #CBP	0	0	4	yes	2	9	25	0	Dose-dependant	yes	3	60%	100%	–
CC(C)C(=O)Nc1ccc([N+](=O)[O-])c(C(F)(F)F)c1 [FLUTAMIDE]	–	3 days - 10 months	21	0	0	7	AC_ANTI-N	0	0	0	yes	0	31	21	0	Allergic, Reactive metabolite, Dose-dependant	yes	16	10%	41.2%	–
FC(F)(F)C(Cl)Br (configuration not stated) [HALOTHANE]	–	1 day - 3 months	31	2	0	7	AC_ANTI-MFR1/-TFA RC/METHOXYFLURANE/ENFLURANE	0	0	2	yes	1	99	24	3	Allergic, Toxic Metabolite	yes	35	0%	33%	–
